Here are results for 4 compounds from article PMC4075989 (Biochemistry, 2014).

For data set [1], the system named is glucocorticoid receptor (C638G)-GFP fusion (GR-GFP) in HeLa cells. Nature of the data set: GR-GFP translocation assay.
Another data set is described as follows: Serum stability test. The class given is in vitro ADME. The conditions noted are these: human, 25% human serum (supernatant after centrifugation).
The subject of a further data set is mammalian cells. Particulars: cited from earlier work.
In data set [2] the test system is HEK293, MCF-7, A549, H1650, and H1299. Nature of the data set: MTT cytotoxicity assay. The format is cell-based, human. Particulars: triplicates.

SMILES strings stand for the structures. Where a SMILES comes first, the peptide text is derived from it. [ ]: non-standard residue; d: D form. 2Nal = N[C@@H](Cc1ccc2ccccc2c1)C(=O)O

Regarding `C[C@@H]1C[C@H]2[C@@H]3CCC4=CC(=O)C=C[C@]4(C)[C@@]3(F)[C@@H](O)C[C@]2(C)[C@@]1(O)C(=O)CO` [Dex, dexamethasone], in data set [1], the “effect of Rab5(Q79L) overexpression on TR” value is on record as “no effect”.
By half-life is commonly meant the time in which the quantity being followed falls by half. Lower therefore signals fast loss. Regarding `N=C(N)NCCC[C@H](NC(=O)[C@H](CCCNC(=N)N)NC(=O)[C@H](CCCNC(=N)N)NC(=O)[C@H](CCCNC(=N)N)NC(=O)[C@H](CCCNC(=N)N)NC(=O)[C@H](CCCNC(=N)N)NC(=O)[C@H](CCCNC(=N)N)NC(=O)[C@H](CCCNC(=N)N)NC(=O)[C@@H](N)CCCNC(=N)N)C(=O)O` [R9], the half-life in the data set “Serum stability test” was approximately 30 min.
Same read-out and setting: the same measure for `N=C(N)NCCC[C@H](NC(=O)[C@H](CCCNC(=N)N)NC(=O)[C@H](CCCNC(=N)N)NC(=O)[C@H](CCC(N)=O)NC(=O)[C@H](CCCNC(=N)N)NC(=O)[C@H](CCCNC(=N)N)NC(=O)[C@H](CCCCN)NC(=O)[C@H](CCCCN)NC(=O)[C@H](CCCNC(=N)N)NC(=O)CNC(=O)[C@@H](N)Cc1ccc(O)cc1)C(=O)O` [Tat]: approximately 30 min.
As a reminder, the amount remaining is what is left of the initial amount, in per cent. The low end stands for more turnover, the high end for less turnover. For the compound `N=C(N)NCCC[C@@H]1NC(=O)[C@H](CCCNC(=N)N)NC(=O)[C@H](CCCNC(=N)N)NC(=O)[C@H](Cc2ccc3ccccc3c2)NC(=O)[C@H](Cc2ccccc2)NC(=O)[C@H](CCC(N)=O)NC(=O)[C@H](CCCNC(=N)N)NC1=O` [cFΦR4] (cyclo(F[2Nal]RRRRQ)), the fraction remaining at 24 h, 5 µM in the data set “Serum stability test” is more than 70%. The “efficiency of entering the cytoplasm and nucleus relative to nonaarginine (R9)” value with mammalian cells is recorded as 2–5 fold. Further, in data set [2] (50 μM, 72 h), the “growth inhibition after 72 h” value is recorded as “up to 20%”. The “growth inhibition after 24 or 48 h” value in data set [2] (up to 50 μM, any of five human cell lines) is “no significant growth inhibition”.
